Experiments:
[1] = system: PC-3; assay: cells; settings: Homo sapiens, PC-3, 48 h
Description: Cytotoxicity against human PC3 cells after 48 hrs by sulforhodamine B assay

[2] = system: DU-145; assay: cells; settings: Homo sapiens, DU-145, 48 h
Description: Cytotoxicity against human DU145 cells after 48 hrs by sulforhodamine B assay

[3] = Cytotoxicity against mouse B16-F1 cells after 48 hrs by sulforhodamine B assay; format: functional, cell-based
[4] = system: LNCaP; assay: Cytotoxicity against human LNCAP cells after 48 hrs by sulforhodamine B assay; format: functional, cell-based
[5] = Cytotoxicity against human WM164 cells after 48 hrs by sulforhodamine B assay; format: functional, cell-based
[6] = system: PPC-1; assay: Cytotoxicity against human PPC1 cells after 48 hrs by sulforhodamine B assay; format: functional, cell-based
[7] = system: A-375; assay: Cytotoxicity against human A375 cells after 48 hrs by sulforhodamine B assay; format: functional, cell-based

Structure (SMILES) | IC50 [1] [µM] | IC50 [2] [µM] | IC50 ([3]; Mus musculus, B16-F1, 48 h) [µM] | IC50 [4] [µM] | IC50 ([5]; Homo sapiens, WM164, 48 h) [µM] | IC50 ([6]; Homo sapiens, PPC-1, 48 h) [µM] | IC50 ([7]; Homo sapiens, A-375, 48 h) [µM] | IC50 ([6]; ppc-1) [µM] | IC50 ([3]; b16-f1) [µM] | IC50 ([7]; a-375) [µM] | IC50 ([5]; wm164) [µM]
COc1ccc(-c2nc(C(=O)c3ccc(F)cc3)c[nH]2)cc1OC | 10 | 10 | 4.21 | 2.53 | 1.4 | 2.17 | – | – | – | – | –
Cc1ccc(C(=O)c2c[nH]c(-c3ccccc3)n2)cc1 | > 10 | > 10 | > 10 | > 10 | > 10 | > 10 | > 10 | – | – | – | –
Cc1cccc(C(=O)c2c[nH]c(-c3ccccc3)n2)c1 | > 10 | > 10 | > 10 | > 10 | > 10 | > 10 | > 10 | – | – | – | –
O=S(=O)(c1ccccc1)n1ccnc1-c1ccccc1 | > 10 | > 10 | > 10 | > 10 | > 10 | > 10 | > 10 | – | – | – | –
O=C(c1ccc(F)cc1)c1c[nH]c(-c2ccccc2)n1 | 2.1 | 0.85 | 0.93 | 0.61 | – | 0.57 | – | – | – | – | –
O=C(c1cccc(F)c1)c1c[nH]c(-c2ccccc2)n1 | > 10 | > 10 | > 10 | > 10 | > 10 | > 10 | > 10 | – | – | – | –
O=C(c1cc(O)c(O)c(O)c1)c1c[nH]c(-c2cc(O)c(O)c(O)c2)n1 | > 10 | > 10 | > 10 | > 10 | > 10 | > 10 | > 10 | – | – | – | –
COc1cc(C(=O)c2c[nH]c(-c3ccc(OCc4ccccc4)cc3)n2)cc(OC)c1OC | 10 | 10 | – | 2.79 | 5.5 | 2.84 | 5.2 | – | – | – | –
O=C(c1ccc(F)cc1)c1c[nH]c(-c2ccc(OCc3ccccc3)cc2)n1 | 0.079 | 0.06 | 0.117 | 0.044 | 0.09 | 0.043 | 0.093 | – | – | – | –
COc1cc(C(=O)c2c[nH]c(-c3ccc(O)cc3)n2)cc(OC)c1OC | – | – | 2.4 | – | 1.8 | – | 1.6 | – | – | – | –
O=C(c1ccc(F)cc1)c1c[nH]c(-c2ccc(O)cc2)n1 | > 10 | > 10 | > 10 | 10 | > 10 | > 10 | – | – | – | – | –
COc1cc(C(=O)c2c[nH]c(-c3ccc(C(F)(F)F)cc3)n2)cc(OC)c1OC | 0.127 | 0.174 | 0.468 | 0.134 | – | 0.11 | 0.163 | – | – | – | –
O=C(c1cc(O)c(O)c(O)c1)c1c[nH]c(-c2ccc(O)c(O)c2)n1 | > 10 | > 10 | > 10 | > 10 | > 10 | > 10 | > 10 | – | – | – | –
COc1ccc(C(=O)c2cnc(-c3ccccc3)n2S(=O)(=O)c2ccccc2)cc1 | > 10 | > 10 | > 10 | > 10 | > 10 | > 10 | > 10 | – | – | – | –
COc1cccc(C(=O)c2cnc(-c3ccccc3)n2S(=O)(=O)c2ccccc2)c1 | > 10 | > 10 | > 10 | > 10 | > 10 | > 10 | > 10 | – | – | – | –
Cc1ccc(C(=O)c2cnc(-c3ccccc3)n2S(=O)(=O)c2ccccc2)cc1 | > 10 | > 10 | > 10 | > 10 | > 10 | > 10 | > 10 | – | – | – | –
COc1cc(C(=O)c2c[nH]c(-c3ccccc3)n2)cc(OC)c1OC | 0.29 | 0.2 | 0.12 | 0.15 | 0.1 | 0.13 | 0.16 | – | – | – | –
COc1ccc(C(=O)c2c[nH]c(-c3ccccc3)n2)cc1 | > 10 | > 10 | > 10 | > 10 | > 10 | > 10 | > 10 | – | – | – | –
COc1cccc(C(=O)c2c[nH]c(-c3ccccc3)n2)c1 | > 10 | > 10 | > 10 | > 10 | > 10 | > 10 | > 10 | – | – | – | –
O=C(c1ccc(F)cc1)c1cnc(-c2ccccc2)n1S(=O)(=O)c1ccccc1 | 2.23 | 0.846 | 0.946 | 0.573 | 0.596 | 0.575 | 0.63 | – | – | – | –
O=C(c1cccc(F)c1)c1cnc(-c2ccccc2)n1S(=O)(=O)c1ccccc1 | > 10 | > 10 | > 10 | > 10 | > 10 | > 10 | > 10 | – | – | – | –
COc1cc(OC)cc(C(=O)c2c[nH]c(-c3ccccc3)n2)c1 | 3.2 | 2.6 | 5.4 | 3.6 | – | 2.1 | 2.8 | – | – | – | –

Structure (SMILES) | IC50 [1] [µM] | IC50 [2] [µM] | IC50 ([3]; Mus musculus, B16-F1, 48 h) [µM] | IC50 [4] [µM] | IC50 ([5]; Homo sapiens, WM164, 48 h) [µM] | IC50 ([6]; Homo sapiens, PPC-1, 48 h) [µM] | IC50 ([7]; Homo sapiens, A-375, 48 h) [µM] | IC50 ([6]; ppc-1) [µM] | IC50 ([3]; b16-f1) [µM] | IC50 ([7]; a-375) [µM] | IC50 ([5]; wm164) [µM]
COc1ccc(C(=O)c2c[nH]c(-c3ccccc3)n2)cc1OC | > 10 | > 10 | > 10 | > 10 | > 10 | > 10 | > 10 | – | – | – | –
COc1ccc(C(=O)n2ccnc2-c2ccccc2)cc1 | > 10 | > 10 | > 10 | > 10 | > 10 | > 10 | > 10 | – | – | – | –
Cc1ccc(-c2ncc(C(=O)c3ccc(F)cc3)n2S(=O)(=O)c2ccccc2)cc1 | 0.08 | 0.08 | 0.287 | 0.055 | 0.107 | 0.057 | – | – | – | – | –
COc1cc(C(=O)n2ccnc2-c2ccccc2)cc(OC)c1OC | > 10 | > 10 | > 10 | > 10 | > 10 | > 10 | > 10 | – | – | – | –
O=[N+]([O-])c1ccc(-c2nccn2S(=O)(=O)c2ccccc2)cc1 | > 10 | > 10 | > 10 | > 10 | > 10 | > 10 | > 10 | – | – | – | –
COc1cc(C(=O)c2cnc(-c3cc(OC)c(OC)c(OC)c3)n2S(=O)(=O)c2ccccc2)cc(OC)c1OC | > 10 | > 10 | > 10 | > 10 | > 10 | > 10 | > 10 | – | – | – | –
COc1cc(-c2ncc(C(=O)c3ccc(F)cc3)n2S(=O)(=O)c2ccccc2)cc(OC)c1OC | > 10 | > 10 | > 10 | > 10 | > 10 | > 10 | 3.84 | – | – | – | –
O=S(=O)(c1ccccc1)n1ccnc1-c1ccc(OCc2ccccc2)cc1 | > 10 | > 10 | > 10 | > 10 | > 10 | > 10 | > 10 | – | – | – | –
COc1cc(C(=O)c2c[nH]c(-c3ccc(F)cc3)n2)cc(OC)c1OC | 0.169 | 0.132 | 0.32 | 0.098 | 0.073 | 0.081 | 0.205 | – | – | – | –
COc1cc(C(=O)c2cnc(-c3ccc(N(C)C)cc3)n2S(=O)(=O)c2ccccc2)cc(OC)c1OC | 0.093 | 0.099 | 1.2 | 0.062 | 0.308 | – | 0.162 | – | – | – | –
COc1ccc(-c2nc(C(=O)c3cc(OC)c(OC)c(OC)c3)c[nH]2)cc1 | 0.045 | 0.048 | 0.108 | 0.031 | – | 0.034 | – | – | – | – | –
COc1ccc(-c2ncc(C(=O)c3cc(OC)c(OC)c(OC)c3)n2S(=O)(=O)c2ccccc2)cc1OC | 0.197 | 0.144 | 0.97 | 0.114 | 0.139 | – | 0.192 | – | – | – | –
COc1cc(C(=O)c2c[nH]c(-c3ccc(C)cc3)n2)cc(OC)c1OC | – | – | 0.046 | – | 0.008 | – | – | 0.011 | – | – | –
Cc1ccc(-c2nc(C(=O)c3ccc(F)cc3)c[nH]2)cc1 [listing 1 of 2 here] | 0.065 | 0.078 | 0.222 | 0.045 | 0.156 | 0.054 | 0.142 | – | – | – | –
Cc1ccc(-c2nc(C(=O)c3ccc(F)cc3)c[nH]2)cc1 [listing 2 of 2 here] | – | – | – | – | – | – | – | – | 0.297 | 0.108 | 0.112
COc1cc(C(=O)c2c[nH]c(-c3cc(OC)c(OC)c(OC)c3)n2)cc(OC)c1OC | > 10 | > 10 | > 10 | > 10 | > 10 | > 10 | 4.8 | – | – | – | –
COc1cc(-c2nc(C(=O)c3ccc(F)cc3)c[nH]2)cc(OC)c1OC | > 10 | > 10 | > 10 | > 10 | > 10 | > 10 | > 10 | – | – | – | –
COc1cc(C(=O)c2c[nH]c(-c3ccc(Cl)cc3)n2)cc(OC)c1OC | 0.035 | 0.036 | 0.168 | 0.024 | – | 0.026 | 0.043 | – | – | – | –
O=C(c1cc(O)c(O)c(O)c1)c1c[nH]c(-c2ccc(Cl)cc2)n1 | 10 | 10 | 1.81 | 10 | 2.1 | > 10 | 3.9 | – | – | – | –
CN(C)c1ccc(-c2nc(C(=O)c3ccc(F)cc3)c[nH]2)cc1 | 0.081 | – | – | 0.057 | 0.062 | 0.045 | – | – | – | – | –
COc1ccc(-c2nc(C(=O)c3cc(OC)c(OC)c(OC)c3)c[nH]2)cc1OC | – | – | 1.4 | – | 0.191 | – | – | – | – | – | –

— ChEMBL document CHEMBL1268953, “Discovery of novel 2-aryl-4-benzoyl-imidazoles targeting the colchicines binding site in tubulin as potential anticancer agents” (J Med Chem, 2010)
